Experiments:
[1] = Titration of amine coated core sand in brine #2 with 1N HCl, amine in solution by GC (Example 2); format: physicochemical; details: brine #2, 1N HCl
Protocol: Helium was used as the carrier gas.
38 milligrams (mg) of N N-Dimethyl-1-Dodecanamine (hereafter referred to as “the amine”) was added to 10.210 gr of Pentane. This solution was added to 10.1845 gr of specific sand layers (Oa and Ob) obtained from the Schrader Bluff formation of the Milne Point Unit of the Alaskan North slope. The oil content of the sand was first removed using a mixture of methanol and toluene (50/50, volume/volume) as solvent washes. The solvent mixture was subsequently evaporated off the core sand to produce clean, dry, flowable core sand. This sand was mixed with the amine and pentane solution to produce a slurry. This slurry was thoroughly mixed and the pentane was evaporated off leaving the amine on the sand (hereafter referred to as sand/amine mixture). 100 ml of brine #2 (Table 3) was added to the sand/amine mixture to create the sand/amine/brine mixture. […] The fact that the amine was not detected underlined its strong binding to the sand particles. […] The data underlines the remarkable efficiency of an acid at ionizing and removing the amine from the sand.

[2] = Titration of sand/amine/brine mixture with 10% nitric acid, amine in solution by GC (Example 4); details: core sand, brine #2, 10 wt % nitric acid
Protocol: (§1) Concentration of amines, in media and water, were analyzed by gas chromatography (GC). An Agilent Model 5890 (Agilent, Wilmington, Del.), GC equipped with a […] and a split/splitless injector, a DB-FFAP column (30 meter length×0.32 millimeter (mm) depth×0.25 micrometer particle size). […] The system was calibrated using a sample of N,N-Dimethyl-1-Dodecaneamine (Aldrich). Helium was used as the carrier gas. A temperature gradient of 50 degrees Celsius (° C.) to 250° C. at 30° C. increase per minute (min) was used. Retention times (in minutes, min) for various chemicals of interest included: N,N-Dimethyl-1-Dodecaneamine (8.08 min); N,N-Dimethyl-1-Tetradecaneamine (8.85 min); N,N-Dimethyl-1-Hexadecane-amine (9.90 min); N,N-Dimethyl-1-Octadecaneamine (10.26 min) and N-Methyl,N-Benzyl)-1-Tetradecaneamine (11.40 min).
The procedure outlined in Example 2 was used to produce the sand/amine mixture except that 519 mg of the amine, 10 gr of Pentane. and 60.062 gr of sand from the Oa and Ob layers were used. 29.065 gr of this sand/amine mixture was added to 100 ml of brine #2 (Table 3) to create the sand/amine/brine mixture. […] 0.1 ml of 10 weight percent (wt %) nitric acid in water was added to this solution, and the pH and the amine concentration were measured again.

[3] = Titration of sand/amine/brine mixture with 10% acetic acid, amine in solution by GC (Example 5); details: core sand, brine #2, 10 wt % acetic acid
Protocol: as §1
The same procedure outlined in Example 4 was repeated here to produce the sand/amine mixture. 30.85 grams (gr) of the sand/amine mixture was added to 100 ml of brine #2 (Table 3) to create the sand/amine/brine mixture.

With `CCCCCCCCCCCCN(C)C` [N-N-dimethyl-1-dodeanamine, N N-Dimethyl-1-Dodecanamine] the “pH of complete ionization and solubilization of the amine in the water” value [1] was under 6.0 pH, the “pH of complete ionization and solubilization in the water of the amine” value [2] was under 6.7 pH and the “pH of complete ionization and solubilization in the water of the amine” value [3] was under 6.7 pH.
